{
  "source": "paper PMC10023787",
  "about": "“Trio-pharmacophore DNA-encoded chemical library for simultaneous selection of fragments and linkers” (Nature Communications, 2023)",
  "key": {"MMP-9": {"biological_target": "T1, MMP-9 (Homo sapiens, UniProt P14780)", "T1 construct": "purchased Sino Biological 10327-HNAH", "T1 sequence (P14780 107-707 limits assumed)": "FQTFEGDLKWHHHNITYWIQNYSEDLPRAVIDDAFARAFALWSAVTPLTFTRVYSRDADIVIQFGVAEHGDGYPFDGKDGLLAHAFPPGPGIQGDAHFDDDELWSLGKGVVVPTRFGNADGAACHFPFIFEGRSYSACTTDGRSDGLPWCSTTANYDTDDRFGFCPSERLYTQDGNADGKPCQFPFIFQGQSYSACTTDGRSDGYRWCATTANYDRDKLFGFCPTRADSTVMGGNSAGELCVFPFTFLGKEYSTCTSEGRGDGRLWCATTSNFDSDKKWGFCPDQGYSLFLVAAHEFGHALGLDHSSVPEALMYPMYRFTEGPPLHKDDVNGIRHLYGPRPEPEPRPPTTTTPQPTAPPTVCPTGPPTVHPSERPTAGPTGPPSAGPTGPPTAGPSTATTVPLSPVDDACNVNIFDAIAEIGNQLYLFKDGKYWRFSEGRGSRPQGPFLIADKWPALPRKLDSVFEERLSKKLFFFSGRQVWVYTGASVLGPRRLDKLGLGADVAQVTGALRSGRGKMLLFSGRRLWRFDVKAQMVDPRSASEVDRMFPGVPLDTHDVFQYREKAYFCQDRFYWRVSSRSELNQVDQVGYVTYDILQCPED", "experiment": "De novo T-DEL selection against MMP-9, NGS decoding", "format": "binding", "conditions": "for Enrichment Fold / Count: MMP9 selection; for Count: NGS sequence count per Compound ID (Figure 4a)", "source_text": "(§1) Matrix metalloproteinases (MMPs) are zinc-dependent endopeptidases capable of degrading and remodeling extracellular matrix components[46],[47]. They are attractive therapeutic targets as high expression levels were detected in various diseases, such as inflammatory diseases, and at different stages of cancers, including metastasis, invasion, and angiogenesis[47]–[53]. As shown in Supplementary Fig. 3c, we performed selections against the two gelatinases (human MMP-2 and human MMP-9) to identify binding fragments for later design and synthesis of small molecule inhibitors. After selection, the three sub-libraries were decoded, and the enrichment was calculated by dividing the post-selection fraction (count/total counts) by the pre-selection fraction (Fig. 4a and Supplementary Fig. 13).\n(§2) 4 µg of MMP-2/MMP-9 was dissolved in 100 µl of selection buffer containing 25 mM Tris-base, 10 mM CaCl2, 150 mM NaCl, 0.05% Tween 20, pH 7.5. 10 µl of 4-Aminophenylmercuric acetate (APMA) (100 mM) solution was added to the protein solution and incubated at 37 °C for 1 h. After activation, the solution was added on top of 40 µl pre-washed Ni-NTA resin and incubated for 30 min on a rotary shaker. The supernatant was discarded, and the resin was washed three times with the selection buffer.\n(§3) For each independent selection, three sub-libraries were mixed in the selection buffer with a final concentration of 40 nM of each sub-library in 100 µl. The mixture was heat denatured at 90 °C for 1 min and slowly cooled down to allow the formation of the trio-pharmacophore library. The dynamic dual-pharmacophore DEL was provided by DyNAbind GmbH (Merck, DYNA001).\n(§4) The assembled library was incubated with the protein-bound solid support for 2 h at RT on a rotary shaker. In parallel, selection on bare solid support served as the negative control to exclude promiscuous binders on the resin. After panning, the supernatant was discarded, and the resin was washed three times with 1 ml selection buffer. Finally, 100 µl of 50 mM Tris buffer, pH 7.4 was added to resuspend the resin and the resin was incubated at 95 °C for 5 min to denature the protein, release, and collect the bound library members.\n(§5) The eluted library members were subjected to sample preparation for NGS. NGS preparation was achieved by two-step PCR. First, the individual selection was indexed using primers containing unique sequences corresponding to each selection. The amplified product was purified from 2% agarose gel. Second, the purified DNA from all selections were pooled in equal amount and subjected to the 2nd PCR step to attach sequences compatible with the NGS flow cell and the sequencing primers. NGS was performed by Novogene UK with Novaseq 6000. Raw data files (fastq files) obtained were decoded using a custom python script and excel. The sequence reads corresponding to each sample was retrieved by searching for the correct index unique to each selection. Then, the code region was extracted from each sequence and assigned to the corresponding identity. The count of each code in each selection sample was obtained by looping through the total reads and counting the occurrence of each code. The enrichment fold of each compound was calculated by first, dividing the count by the total count to get the abundance, second, the abundance after the selection was divided by the abundance of pre-selection to reflect the distribution change of the compound. Next, the enrichment fold was plotted against the count for each member of the library to give the scatter plots as in Fig. 4."}, "MMP-2": {"biological_target": "T2, MMP-2 (Homo sapiens, UniProt P08253)", "T2 construct": "purchased Sino Biological 10082-HNAH", "T2 sequence (P08253 110-660)": "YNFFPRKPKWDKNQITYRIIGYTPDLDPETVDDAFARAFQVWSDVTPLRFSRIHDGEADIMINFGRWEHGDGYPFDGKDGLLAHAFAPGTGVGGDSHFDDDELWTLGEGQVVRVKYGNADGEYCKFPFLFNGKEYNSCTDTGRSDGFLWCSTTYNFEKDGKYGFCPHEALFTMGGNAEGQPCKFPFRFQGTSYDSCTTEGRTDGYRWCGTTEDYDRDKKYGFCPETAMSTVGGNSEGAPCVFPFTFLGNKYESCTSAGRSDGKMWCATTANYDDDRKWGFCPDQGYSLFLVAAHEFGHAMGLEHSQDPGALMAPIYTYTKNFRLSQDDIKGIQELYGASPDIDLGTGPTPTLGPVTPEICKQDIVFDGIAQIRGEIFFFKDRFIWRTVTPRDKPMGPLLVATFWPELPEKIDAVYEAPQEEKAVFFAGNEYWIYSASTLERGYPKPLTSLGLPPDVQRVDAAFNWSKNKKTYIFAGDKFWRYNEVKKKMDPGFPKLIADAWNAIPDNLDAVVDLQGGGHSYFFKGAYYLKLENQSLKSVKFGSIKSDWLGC", "experiment": "Dynamic dual-pharmacophore DEL selection against MMP-2, NGS decoding", "format": "binding", "conditions": "for MMP2 5L Enrichment Fold: 5L library (Supplementary fig 13); for MMP2 5L Count: 5L library; for MMP2 5L Count / MMP2 3L Count: sequence count (Supplementary fig 13); for MMP2 3L Enrichment Fold: 3L library (Supplementary fig 13); for MMP2 3L Count: 3L library", "source_text": "as §1, §2, §3, §4, §5"}, "[1]": {"conditions": "NGS sequence count of sub-library SL-A building block, de novo T-DEL selection against MMP-9"}, "[2]": {"conditions": "enrichment fold of sub-library SL-C member, MMP-9 selection, Figure 4a source data"}, "[3]": {"conditions": "sequence count of sub-library SL-C member, MMP-9 selection, Figure 4a source data"}, "[4]": {"conditions": "sub-library SL-A building block, de novo T-DEL selection against MMP-9"}, "[5]": {"conditions": "MMP2 3L (3' sub-library members)"}, "[6]": {"conditions": "MMP2 3L (3' sub-library members), NGS sequence count after selection"}, "[7]": {"conditions": "NGS sequence count of sub-library SL-C building block, de novo T-DEL selection against MMP-9"}, "[8]": {"conditions": "sub-library SL-C building block, de novo T-DEL selection against MMP-9"}},
  "data": [
    {"smiles": "Cn1c(O)nc2cc(C(=O)O)cnc21", "note": "[Compound 826]", "values": [
      {"measurement": "MMP9 SL-A Count", "setting": "MMP-9; [1]", "value": 1891},
      {"measurement": "MMP9 SL-C Enrichment Fold", "setting": "MMP-9; [2]", "value": 4.359},
      {"measurement": "MMP9 SL-C Count", "setting": "MMP-9; [3]", "value": 10836},
      {"measurement": "MMP9 SL-A Enrichment Fold", "setting": "MMP-9; [4]", "value": 1.691},
      {"measurement": "Enrichment Fold", "setting": "MMP-2; [5]", "value": 11.3583},
      {"measurement": "Count", "setting": "MMP-2; [6]", "value": 12779},
      {"measurement": "MMP2 5L Enrichment Fold", "setting": "MMP-2; MMP2 selection", "value": 2.035},
      {"measurement": "MMP2 5L Count", "setting": "MMP-2; MMP2 selection", "value": 2158}
    ]},
    {"smiles": "Cc1cc(=O)[nH]c(-n2nc(C)c(CCC(=O)O)c2C)n1", "note": "[Compound 693]", "values": [
      {"measurement": "MMP9 SL-A Count", "setting": "MMP-9; [1]", "value": 8460},
      {"measurement": "MMP9 SL-C Count", "setting": "MMP-9; [7]", "value": 1032},
      {"measurement": "MMP9 SL-A Enrichment Fold", "setting": "MMP-9; [4]", "value": 3.659},
      {"measurement": "MMP9 SL-C Enrichment Fold", "setting": "MMP-9; [8]", "value": 1.167},
      {"measurement": "MMP2 3L Enrichment Fold", "setting": "MMP-2; MMP2 selection", "value": 0.8647},
      {"measurement": "MMP2 3L Count", "setting": "MMP-2; MMP2 selection", "value": 991},
      {"measurement": "MMP2 5L Enrichment Fold", "setting": "MMP-2; MMP2 selection", "value": 3.023},
      {"measurement": "MMP2 5L Count", "setting": "MMP-2; MMP2 selection", "value": 6628}
    ]},
    {"smiles": "NCc1c[nH]nn1", "note": "[Compound 787]", "values": [
      {"measurement": "MMP9 SL-A Count", "setting": "MMP-9; [1]", "value": 949},
      {"measurement": "MMP9 SL-C Count", "setting": "MMP-9; [7]", "value": 3684},
      {"measurement": "MMP9 SL-A Enrichment Fold", "setting": "MMP-9; [4]", "value": 0.9459},
      {"measurement": "MMP9 SL-C Enrichment Fold", "setting": "MMP-9; [8]", "value": 3.649},
      {"measurement": "MMP2 3L Enrichment Fold", "setting": "MMP-2; MMP2 selection", "value": 3.194},
      {"measurement": "MMP2 3L Count", "setting": "MMP-2; MMP2 selection", "value": 2558},
      {"measurement": "MMP2 5L Enrichment Fold", "setting": "MMP-2; MMP2 selection", "value": 0.7494},
      {"measurement": "MMP2 5L Count", "setting": "MMP-2; MMP2 selection", "value": 713}
    ]},
    {"smiles": "O=C(O)Cn1cnc2c(oc3ccccc32)c1=O", "note": "[Compound 182]", "values": [
      {"measurement": "MMP9 SL-A Count", "setting": "MMP-9; NGS sequence count per SL-A member, de novo T-DEL selection against MMP-9 (Figure 4a source data)", "value": 5190},
      {"measurement": "MMP9 SL-C Count", "setting": "MMP-9; NGS sequence count per SL-C member, de novo T-DEL selection against MMP-9 (Figure 4a source data)", "value": 816},
      {"measurement": "MMP9 SL-A Enrichment Fold", "setting": "MMP-9; enrichment fold per SL-A member, de novo T-DEL selection against MMP-9 (Figure 4a source data)", "value": 1.432},
      {"measurement": "MMP9 SL-C Enrichment Fold", "setting": "MMP-9; enrichment fold per SL-C member, de novo T-DEL selection against MMP-9 (Figure 4a source data)", "value": 0.7692},
      {"measurement": "Enrichment Fold", "setting": "MMP-2; MMP2 selection, 3L sub-library", "value": 1.088},
      {"measurement": "Count", "setting": "MMP-2; MMP2 selection, 3L sub-library, sequence count per compound ID", "value": 1179},
      {"measurement": "Enrichment Fold", "setting": "MMP-2; MMP2 selection, 5L sub-library", "value": 1.688},
      {"measurement": "Count", "setting": "MMP-2; MMP2 selection, 5L sub-library, sequence count per compound ID", "value": 5803}
    ]},
    {"smiles": "O=C(O)CNC(=O)NC12CC3CC(CC(C3)C1)C2", "note": "[Compound 66]", "values": [
      {"measurement": "Enrichment Fold", "setting": "MMP-9; sub-library SL-A (Figure 4a)", "value": 2.103},
      {"measurement": "Count", "setting": "MMP-9; sub-library SL-A", "value": 4968},
      {"measurement": "Enrichment Fold", "setting": "MMP-9; sub-library SL-C (Figure 4a)", "value": 0.3958},
      {"measurement": "Count", "setting": "MMP-9; sub-library SL-C", "value": 87},
      {"measurement": "Enrichment Fold", "setting": "MMP-2; MMP2 selection, 3L sub-library", "value": 1.69},
      {"measurement": "Count", "setting": "MMP-2; MMP2 selection, 3L sub-library, NGS sequence count", "value": 477},
      {"measurement": "Enrichment Fold", "setting": "MMP-2; MMP2 selection, 5L sub-library", "value": 1.932},
      {"measurement": "Count", "setting": "MMP-2; MMP2 selection, 5L sub-library, NGS sequence count", "value": 4327}
    ]},
    {"smiles": "O=C(O)c1cncc(O)c1", "note": "[Compound 828]", "values": [
      {"measurement": "MMP9 SL-C Enrichment Fold", "setting": "MMP-9; [2]", "value": 10.2969},
      {"measurement": "MMP9 SL-C Count", "setting": "MMP-9; [3]", "value": 32127},
      {"measurement": "Enrichment Fold", "setting": "MMP-2; [5]", "value": 6.248},
      {"measurement": "Count", "setting": "MMP-2; [6]", "value": 14566}
    ]}
  ]
}
